Source: patent publication EP0114128A1, “3-Amino-2-oxo-azetidine derivatives containing in position 1 a nitrogen heterocyclic radical, process for their preparation, their use as therapeutical agents and intermediates for their preparation” (priority 1983, dated 1984)
≈ marks a conversion by molar mass, not a printed value. Where two headings read alike, the source gives them in different places.

Experiments:
Assay in all cases: In vitro activity, dilution method in liquid medium (MIC)
Assay type in all cases: cell-based
Escherichia Coli 1507 E = details: COLI1507E, read-out: concentrations minimales inhibitrices (C. M. I.)
Protocol: (§1) Etude pharmacologiaue des produits de l'invention. Activité in vitro, méthode des dilutions en milieu liquide.
(§2) On prépare une série de tubes dans lesquels on répartit une même quantité de milieu nutritif stérile. On distribue dans chaque tube des quantités croissantes du produit à étudier, puis chaque tube est ensemencé avec une souche bactérienne. Après incubation de vingt-quatre ou quarante-huit heures à l'étuve à 37°C, l'inhibition de la croissance est appréciée par transillumination ce qui permet de déterminer les concentrations minimales inhibitrices (C. M. I.) exprimées en µg/cm3.

[1] = system: Salmonella typhimurium MZ 11; details: Salmonella enterica, read-out: concentrations minimales inhibitrices (C. M. I.)
Protocol: as §1, §2

Escherichia Coli TEM = details: read-out: concentrations minimales inhibitrices (C. M. I.)
Protocol: as §1, §2

[2] = system: Klebsiella Aeruginosa 1522 E; details: read-out: concentrations minimales inhibitrices (C. M. I.)
Protocol: as §1, §2

[3] = system: Klebsiella pneumonae 52145; details: read-out: concentrations minimales inhibitrices (C. M. I.)
Protocol: as §1, §2

Escherichia Coli DC0 = details: read-out: concentrations minimales inhibitrices (C. M. I.)
Protocol: as §1, §2

Escherichia Coli 078 = details: read-out: concentrations minimales inhibitrices (C. M. I.)
Protocol: as §1, §2

Escherichia Coli DC2 = details: read-out: concentrations minimales inhibitrices (C. M. I.)
Protocol: as §1, §2

Providencia DU 48 = details: read-out: concentrations minimales inhibitrices (C. M. I.)
Protocol: as §1, §2

[4] = system: Enterobacter cloacae 1321 E; details: read-out: concentrations minimales inhibitrices (C. M. I.)
Protocol: as §1, §2

Proteus mirabilis A 235 = details: read-out: concentrations minimales inhibitrices (C. M. I.)
Protocol: as §1, §2

Proteus vulgaris A 232 = details: read-out: concentrations minimales inhibitrices (C. M. I.)
Protocol: as §1, §2

Escherichia Coli 1894 = details: read-out: concentrations minimales inhibitrices (C. M. I.)
Protocol: as §1, §2

Serratia marcesceus 2532 = details: read-out: concentrations minimales inhibitrices (C. M. I.)
Protocol: as §1, §2

[5] = system: Pseudomonas aeruginosa 1771 m; details: read-out: concentrations minimales inhibitrices (C. M. I.)
Protocol: as §1, §2

[6] = COLIDC0, 24 H incubation at 37°C
[7] = COLIDC0, 48 H incubation at 37°C
[8] = COLI078, 24 H incubation at 37°C
[9] = COLI078, 48 H incubation at 37°C
[10] = COLIDC2, 24 H incubation at 37°C
[11] = COLIDC2, 48 H incubation at 37°C
[12] = COLI1894, 24 H incubation at 37°C
[13] = COLI1894, 48 H incubation at 37°C

SMILES: C[C@@H]1[C@H](NC(=O)/C(=N\OC(F)F)c2csc(N)n2)C(=O)N1c1nn[nH]n1 (racemic) [Prod. ex. 4]
- MIC (Escherichia Coli 1507 E; 24 H incubation at 37°C): 0.15 µg/mL (≈ 0.387 µM)
- MIC (Escherichia Coli 1507 E; 48 H incubation at 37°C): 0.15 µg/mL (≈ 0.387 µM)
- MIC ([1]; 24 H incubation at 37°C): 1.2 µg/mL (≈ 3.1 µM)
- MIC ([1]; 48 H incubation at 37°C): 1.2 µg/mL (≈ 3.1 µM)
- MIC (Escherichia Coli TEM; 24 h): 0.6 µg/mL (≈ 1.55 µM)
- MIC (Escherichia Coli TEM; 48 h): 1.2 µg/mL (≈ 3.1 µM)
- MIC ([2]; 24 H incubation at 37°C): 1.2 µg/mL (≈ 3.1 µM)
- MIC ([2]; 48 H incubation at 37°C): 1.2 µg/mL (≈ 3.1 µM)
- MIC ([3]; 24 H incubation at 37°C): 5 µg/mL (≈ 12.9 µM)
- MIC ([3]; 48 H incubation at 37°C): 5 µg/mL (≈ 12.9 µM)
- MIC (Escherichia Coli DC0; [6]): 1.2 µg/mL (≈ 3.1 µM)
- MIC (Escherichia Coli DC0; [7]): 1.2 µg/mL (≈ 3.1 µM)
- MIC (Escherichia Coli 078; [8]): 0.3 µg/mL (≈ 0.775 µM)
- MIC (Escherichia Coli 078; [9]): 0.3 µg/mL (≈ 0.775 µM)
- MIC (Escherichia Coli DC2; [10]): ≤ 0.04 µg/mL
- MIC (Escherichia Coli DC2; [11]): ≤ 0.04 µg/mL
- MIC (Providencia DU 48; DU48, 24 H incubation at 37°C): 2.5 µg/mL (≈ 6.45 µM)
- MIC (Providencia DU 48; DU48, 48 H incubation at 37°C): 2.5 µg/mL (≈ 6.45 µM)
- MIC ([4]; 24 H incubation at 37°C): 1.2 µg/mL (≈ 3.1 µM)
- MIC ([4]; 48 H incubation at 37°C): 1.2 µg/mL (≈ 3.1 µM)
- MIC (Proteus mirabilis A 235; A235, 24 H incubation at 37°C): 0.3 µg/mL (≈ 0.775 µM)
- MIC (Proteus mirabilis A 235; A235, 48 H incubation at 37°C): 0.3 µg/mL (≈ 0.775 µM)
- MIC (Proteus vulgaris A 232; A232, 24 H incubation at 37°C): 0.3 µg/mL (≈ 0.775 µM)
- MIC (Proteus vulgaris A 232; A232, 48 H incubation at 37°C): 0.3 µg/mL (≈ 0.775 µM)
- MIC (Escherichia Coli 1894; [12]): ≤ 0.04 µg/mL
- MIC (Escherichia Coli 1894; [13]): ≤ 0.04 µg/mL
- MIC (Serratia marcesceus 2532; 24 H incubation at 37°C): 20 µg/mL (≈ 51.6 µM)
- MIC (Serratia marcesceus 2532; 48 H incubation at 37°C): 20 µg/mL (≈ 51.6 µM)

SMILES: C[C@@H]1[C@H](NC(=O)/C(=N\OCC(=O)O)c2csc(N)n2)C(=O)N1c1nn[nH]n1 (racemic) [Prod. ex. 6, (3SR, 4RS) 3-//2-(2-aminothiazol-4-yl) 2/-(carboxyméthoxy) imino/acétyl/amino/ 4-méthyl 1-(1H-tétrazol-5-yl) 2-azétidinone isomère syn]
- MIC (Escherichia Coli 1507 E; 24 H incubation at 37°C): 0.6 µg/mL (≈ 1.52 µM)
- MIC (Escherichia Coli 1507 E; 48 H incubation at 37°C): 0.6 µg/mL (≈ 1.52 µM)
- MIC ([1]; 24 H incubation at 37°C): 0.6 µg/mL (≈ 1.52 µM)
- MIC ([1]; 48 H incubation at 37°C): 0.6 µg/mL (≈ 1.52 µM)
- MIC (Escherichia Coli TEM; 24 h): 0.6 µg/mL (≈ 1.52 µM)
- MIC (Escherichia Coli TEM; 48 h): 0.6 µg/mL (≈ 1.52 µM)
- MIC ([2]; 24 H incubation at 37°C): 0.6 µg/mL (≈ 1.52 µM)
- MIC ([2]; 48 H incubation at 37°C): 0.6 µg/mL (≈ 1.52 µM)
- MIC ([3]; 24 H incubation at 37°C): 2.5 µg/mL (≈ 6.32 µM)
- MIC ([3]; 48 H incubation at 37°C): 2.5 µg/mL (≈ 6.32 µM)
- MIC (Escherichia Coli DC0; [6]): 0.6 µg/mL (≈ 1.52 µM)
- MIC (Escherichia Coli DC0; [7]): 0.6 µg/mL (≈ 1.52 µM)
- MIC (Escherichia Coli 078; [8]): 0.3 µg/mL (≈ 0.759 µM)
- MIC (Escherichia Coli 078; [9]): 0.3 µg/mL (≈ 0.759 µM)
- MIC (Escherichia Coli DC2; [10]): 0.3 µg/mL (≈ 0.759 µM)
- MIC (Escherichia Coli DC2; [11]): 0.3 µg/mL (≈ 0.759 µM)
- MIC (Providencia DU 48; DU48, 24 H incubation at 37°C): 0.6 µg/mL (≈ 1.52 µM)
- MIC (Providencia DU 48; DU48, 48 H incubation at 37°C): 0.6 µg/mL (≈ 1.52 µM)
- MIC ([4]; 24 H incubation at 37°C): 0.3 µg/mL (≈ 0.759 µM)
- MIC ([4]; 48 H incubation at 37°C): 0.6 µg/mL (≈ 1.52 µM)
- MIC (Proteus mirabilis A 235; A235, 24 H incubation at 37°C): 0.15 µg/mL (≈ 0.379 µM)
- MIC (Proteus mirabilis A 235; A235, 48 H incubation at 37°C): 0.15 µg/mL (≈ 0.379 µM)
- MIC (Proteus vulgaris A 232; A232, 24 H incubation at 37°C): 0.08 µg/mL (≈ 0.202 µM)
- MIC (Proteus vulgaris A 232; A232, 48 H incubation at 37°C): 0.15 µg/mL (≈ 0.379 µM)
- MIC ([5]; 24 H incubation at 37°C): 2.5 µg/mL (≈ 6.32 µM)
- MIC ([5]; 48 H incubation at 37°C): 5 µg/mL (≈ 12.6 µM)
- MIC (Escherichia Coli 1894; [12]): 0.6 µg/mL (≈ 1.52 µM)
- MIC (Escherichia Coli 1894; [13]): 0.6 µg/mL (≈ 1.52 µM)
- MIC (Serratia marcesceus 2532; 24 H incubation at 37°C): 2.5 µg/mL (≈ 6.32 µM)
- MIC (Serratia marcesceus 2532; 48 H incubation at 37°C): 5 µg/mL (≈ 12.6 µM)
